Data: paper PMC10804683, “Identification of the pyridoxal 5′‐phosphate allosteric site in human pyridox(am)ine 5′‐phosphate oxidase” (Protein Science : A Publication of the Protein Society, 2024)
Changes are numbered by the printed parent chain. Values joined by “and” are separate entries in the source; they are usually repeats but may differ in a detail not shown here. Equal entries are not always repeated. “Also recorded” adds a separate entry of the source.

Columns and labels:
apo-PNPO wt = target: T1, apo-PNPO wt (Homo sapiens, UniProt Q9NVS9); assay: PLP binding by intrinsic fluorescence, apo wild type; conditions: intrinsic fluorescence 335–345 nm, excitation 280 nm, 100 nM enzyme, read-out: Apo-enzyme PLP binding KD^FLUO
T1 construct: a main form corresponding to the entire protein; made in house; host or cells: E. coli BL21(DE3)
T1 sequence (Q9NVS9 1-261): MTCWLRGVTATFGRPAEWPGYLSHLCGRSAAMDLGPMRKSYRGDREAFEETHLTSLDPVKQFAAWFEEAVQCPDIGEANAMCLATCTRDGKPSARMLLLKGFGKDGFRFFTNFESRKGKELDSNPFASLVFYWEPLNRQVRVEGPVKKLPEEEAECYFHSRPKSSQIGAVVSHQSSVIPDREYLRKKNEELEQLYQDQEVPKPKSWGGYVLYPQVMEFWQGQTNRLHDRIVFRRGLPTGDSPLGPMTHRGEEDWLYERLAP
Source text: (§1) PLP binding to PNPO can be detected and quantitatively measured using differential scanning fluorimetry (DSF) and also by measuring FMN fluorescence changes. We had previously attributed DSF changes to PLP binding at the active site, while FMN fluorescence changes were attributed to PLP binding at the allosteric site (Barile et al., [2019], [2020]). Previous experiments carried out with the PNPO R161C variant, affecting a residue that is essential for substrate binding and catalysis (and therefore also for PLP binding at the active site), confirms that DSF measurements only report PLP binding at the active site (Barile et al., [2021]; Table 1). […] We expected to observe no FMN fluorescence changes upon titration of the variants with PLP. However, this was not the case, and the dissociation constant values obtained by observing the FMN fluorescence emission were only up to threefold larger in the variants with respect to wild type PNPO (Figure 3). […] To check the second possibility, we measured intrinsic fluorescence changes of wild type and variant apo‐forms (i.e., without FMN) upon PLP titration. […]
(§2) Analyses of PLP binding, based on FMN fluorescence increase observed upon binding of PLP to PNPO, were performed as described in Barile et al. ([2020]). […] Emission spectra were recorded from […], with excitation and emission slits set at 3 and 5 nm, respectively. […]

[1] = target: T2, human PNPO F48A/E50L/H248N/R258L variant (Homo sapiens, UniProt Q9NVS9, E50L/F48A/H248N/R258L); assay: PLP binding by DSF, quadruple variant; conditions: 50 mM Na-HEPES pH 7.6, 2 μM enzyme
T2 construct: a main form corresponding to the entire protein; made in house; host or cells: E. coli BL21(DE3)
T2 sequence (Q9NVS9 1-261 F48A/E50L/H248N/R258L): T1 sequence (Q9NVS9 1-261) with F48A, E50L, H248N, R258L
Source text: as §1
FIGURE 2 DSF measurements with F48A (a), F48A/E50L/R258L (b), F48A/E50L/H248N/R258L (c), and 1‐31del PNPO variants in the presence of different PLP concentrations. Upper panels: Fluorescence change is expressed as fractional variation as a function of temperature. […]

[2] = target: T3, apo-PNPO F48A/E50L/H248N/R258L (Homo sapiens, UniProt Q9NVS9, E50L/F48A/H248N/R258L); assay: PLP binding by intrinsic fluorescence, apo quadruple variant; conditions: excitation 280 nm, 100 nM enzyme
T3 construct: a main form corresponding to the entire protein; made in house; host or cells: E. coli BL21(DE3)
T3 sequence (Q9NVS9 1-261 F48A/E50L/H248N/R258L): T1 sequence (Q9NVS9 1-261) with F48A, E50L, H248N, R258L
Source text: as §1, §2

human PNPO wild type = target: T4, human PNPO wild type (Homo sapiens, UniProt Q9NVS9); parameters: a main form corresponding to the entire protein; made in house; host or cells: E. coli BL21(DE3); method as in Barile et al., [2020]; conditions: substrate-enzyme-PLP ternary complex, ref Barile et al., [2020]; cited from earlier work
T4 sequence (Q9NVS9 1-261): T1 sequence (Q9NVS9 1-261)

apo-PNPO F48A/E50L/R258L = target: T5, apo-PNPO F48A/E50L/R258L (Homo sapiens, UniProt Q9NVS9, E50L/F48A/R258L); assay: PLP binding by intrinsic fluorescence, apo triple variant; conditions: excitation 280 nm, 100 nM enzyme
T5 construct: a main form corresponding to the entire protein; made in house; host or cells: E. coli BL21(DE3)
T5 sequence (Q9NVS9 1-261 F48A/E50L/R258L): T1 sequence (Q9NVS9 1-261) with F48A, E50L, R258L
Source text: as §1, §2

Kd (apo-PNPO wt): 0.6 ± 0.05 µM | Kd [1]: 6.07 µM and 6.1 µM
Compound: Cc1ncc(COP(=O)(O)O)c(C=O)c1O [PLP, pyridoxal 5′‐phosphate]
Apo-enzyme PLP binding KD^FLUO [2]: no change in fluorescence was observed; also recorded: No binding | coefficient by which kCAT is reduced with PLP bound at the allosteric site (human PNPO wild type): around 0.15 | Apo-enzyme PLP binding KD^FLUO (apo-PNPO F48A/E50L/R258L): no change in fluorescence was observed; also recorded: No binding
